Measured values reported in publication PMC4467461, “Small-molecule activation of SERCA2a SUMOylation for the treatment of heart failure” (Nature Communications, 2015).

System: isolated adult cardiomyocytes
Experiment: Cardiomyocyte contractility and calcium transient, video-based edge-detection system (IonOptix)
Format: cell-based, Sprague–Dawley rats
Procedure: Figure 1 N106 increases SERCA2a’s cellular activity and SUMOylation in adult cardiomyocytes. In-vitro characterization of activators of SERCA2a SUMOylation. Cell-based screening of small molecules identified one promising compound. Adult ventricular cardiomyocytes were isolated from Sprague–Dawley rats and treated with small molecules on dose-dependent manner for 24 h. DMSO-treated cardiomyocytes were used as a negative control. (a) Chemical structure of SERCA2a SUMOylation activator. N106, N-(4-methoxybenzo[d]thiazol-2-yl)-5-(4-methoxyphenyl)-1,3,4-oxadiazol-2-amine. (b-g) The effects of N106 compound in cardiomyocyte contractility and calcium transient. The dose-dependent effects of N106 compound presented on peak shortening, the time to maximal departure velocity, the time to maximal return velocity, calcium ratio, decay time constant (τ) and the time to 90% baseline (t90) fluorescence in cardiomyocytes were assessed using a video-based edge-detection system (IonOptix Inc.). n=25 cardiomyocytes from each three of hearts per condition. (h) The effects of N106 compound on the ATPase activity of SERCA2a. The ATPase activity were measured at 25 °C in 50 mM MOPS, 100 mM KCl, 5 mM MgCl2, 1 mM […] at pCa 5.0 by using a coupled enzyme system consisting of pyruvate kinase and lactate dehydrogenase, and monitoring the oxidation of the reduced form of NADH at […]. The enzyme activity was determined by using same set of cardiomyocytes. (i) The effect of N106 compound for the formation of SUMOylated SERCA2a was determined using the same set of cardiomyocytes. Endogenous SERCA2a SUMOylation was detected by immunoprecipitation with anti-SERCA2a and then western blotting with anti-SUMO-1 antibodies. The experiments shown are representative of three independent experiments with similar results. (j) The effect of N106 compound on global SUMOylation was measured by western blot analysis with an anti-SUMO-1 antibody in the same set of cardiomyocytes. The experiments shown are representative of three independent western blottings. Data are represented as mean±s.e.m. (n=3 mice hearts per each condition). Data are represented as mean±s.e.m. *P≤0.05; **P<0.001 (Student’s t-test) from DMSO control.
Figure 2 Time-course experiments with N106 in isolated adult cardiomyocytes. (a–f) Adult ventricular cardiomyocytes were isolated from Sprague–Dawley rats and treated with 10 μM of N106 compound over a time course as indicated. The time course of the contractile response to N106 was determined as peak shortening (a), the time to maximal velocity of sarcomere shortening (b) and re-lengthening (c). The time-course changes in calcium kinetic parameters such as calcium transient (d), decay time constant (e) and the time to 90% baseline fluorescence in cardiomyocytes (f) were detected. n=25 cardiomyocytes from each three of hearts per condition. DMSO was used as vehicle control. The time courses of the ATPase activity of SERCA2a (g), level of SUMOylated SERCA2a (h) and level of SUMO-1 conjugates (i) were determined by using the same set of cardiomyocytes (two independent experiments). Data are represented as mean±s.e.m. *P≤0.05; **P<0.001 (Student’s t-test) from DMSO control.
Ventricular heart muscle cells were isolated from 180∼250 g male Sprague–Dawley rats as described. The hearts were perfused sequentially with low-calcium buffer, enzyme solutions containing collagenases and proteases, and high-potassium solution. Next, the hearts were minced, filtered and resuspended in high-potassium solution. The cardiomyocytes were plated on laminin-coated plates and cultured in medium M199 (Life Technologies, CT, USA) containing proper supplements. […]

[1] = screen of eight compounds, 10 μM, 24 h

## COc1ccc(-c2nnc(Nc3nc4c(OC)cccc4s3)o2)cc1 [Compound N106, N-(4-methoxybenzo[d]thiazol-2-yl)-5-(4-methoxyphenyl)-1,3,4-oxadiazol-2-amine]
10 μM, 24 h
  inotropic effect in isolated cardiomyocytes: positive inotropic effects
At over 50 μM concentration
  positive effect on cardiomyocytes contractility: no longer observed
dose–response, 10 nM, 24 h
  Calcium-transient amplitude: 0.18±0.01
  exponential decay of time constant, τ: 0.20 ± 0.01 s
  maximal velocities of cell contraction: −1.93±0.08 μm s^−1
  maximal velocities of cell relaxation: 1.76±0.08 μm s^−1
  peak shortening: 7.63±0.48%
  time for 90% decay, t90: 0.47 ± 0.02 s
dose–response, 100 nM, 24 h
  Calcium-transient amplitude: 0.21±0.01
  exponential decay of time constant, τ: 0.20 ± 0.01 s
  maximal velocities of cell contraction: −2.17±0.10 μm s^−1
  maximal velocities of cell relaxation: 1.98±0.12 μm s^−1
  peak shortening: 8.36±0.56%
  time for 90% decay, t90: 0.44 ± 0.02 s
dose–response, 10 μM, 24 h
  Calcium-transient amplitude: 0.19±0.00
  exponential decay of time constant, τ: 0.16 ± 0.008 s
  maximal velocities of cell contraction: −2.30±0.19 μm s^−1
  maximal velocities of cell relaxation: 1.99±0.15 μm s^−1
  peak shortening: 9.10±0.52%
  time for 90% decay, t90: 0.35 ± 0.006 s
[1]
  peak shortening: 12.03±0.80%
  transient calcium decay τ: 0.18 ± 0.02 s
Time course, 10 μM, 10 min
  calcium amplitude (ratio 360/380 nm): 0.19±0.01
  maximal velocities of cell contraction: −1.97±0.04 μm s^−1
  maximal velocities of cell relaxation: 1.12±0.11 μm s^−1
  peak shortening: 9.65±0.27%
  t90: 0.40 ± 0.03 s
  τ: 0.17 ± 0.02 s
Time course, 10 μM, 1 h
  maximal velocities of cell contraction: −1.92±0.09 μm s^−1
  maximal velocities of cell relaxation: 1.67±0.15 μm s^−1
  peak shortening: 8.60±0.23%
  t90: 0.35 ± 0.01 s
  τ: 0.14 ± 0.02 s
Time course, 10 μM, 1 h (P=0.17)
  calcium amplitude (ratio 360/380 nm): 0.17±0.01
Time course, 10 μM, 24 h
  calcium amplitude (ratio 360/380 nm): 0.18±0.008
  maximal velocities of cell contraction: −2.3±0.19 μm s^−1
  maximal velocities of cell relaxation: 1.99±0.15 μm s^−1
  peak shortening: 8.90±0.38%
  t90: 0.35 ± 0.006 s
  τ: 0.16 ± 0.008 s
